The assay has as its system platelets. Briefly: Microscopic platelet degranulation at 5° C. with cryoprotective agents. Format: cell-based, human. Details: key to effect on microscopic degranulation, 0.75% / effect on microscopic degranulation, 0.38% / effect on microscopic degranulation, 3% / effect on microscopic degranulation, 1.5% / effect of cryoprotective on platelet degranulation, 3% / effect of cryoprotective on platelet degranulation, 1.5% / effect of cryoprotective on platelet degranulation, 0.75% / effect of cryoprotective on platelet degranulation, 0.38%: none: None = no effect detected ~90% complete degranulation; fair: Fair = 25 to 50% of platelets are non-degranulated; good: Good = >80 are non-degranulated. The note with it: for effect of cryoprotective on platelet degranulation, 3% / effect on microscopic degranulation, 3%: 3% final in ACD-Platelet mixture; for platelet colour / granule preservation: 5° C.; for effect of cryoprotective on platelet degranulation, 0.38% / effect on microscopic degranulation, 0.38%: 0.38% final in ACD-Platelet mixture; for effect of cryoprotective on platelet degranulation, 0.75% / effect on microscopic degranulation, 0.75%: 0.75% final in ACD-Platelet mixture; for effect of cryoprotective on platelet degranulation, 1.5% / effect on microscopic degranulation, 1.5%: 1.5% final in ACD-Platelet mixture. On the procedure:
Platelet aggregation using epinephrine. Ten ml of 24 hr old platelet residual was derived from one platelet unit and split into two 5 ml aliquots in 50 ml tubes. One sample received 10% phosphate buffered saline (PBS) and one 10% PBS containing PEG400 such that the final PEG concentration was 2%. These samples were placed on a flat-bed rotator with a 1 inch stroke, at 70 cycles per min, at 5° C. for 7 days. 100 ul of these platelet suspensions were added to wells of a 96 well U bottom plate. Epinephrine 0.1 mg/ml (Pharmaceutical NDC 0409-4921-34-44-048-DK) was diluted with PBS and 100 ul was added to test wells to give a finial concentration of 10 mcg/ml. The plate was rotated overnight to allow aggregation. The extent of aggregation was read using an ELISA plate reader (Molecular Devises, Vmax) at 690 nm wavelength. Platelets, with and without PEG, were also aggregated by the addition of 10% H2O2. Hydrogen peroxide is not an agonist for the platelet receptor; however exposure to hydrogen peroxide mimics the platelet storage lesion though membrane ageing. In this study, the inventors tested 2 day old residual platelets form one donor unit by splitting the material in to a 24 well cluster plate. Control platelets had 10% PBS added and were compared to test compositions with the addition of 10% volume PBS plus 2% PEG-400. 10% v/v (Hydrogen peroxide 3%) was then added to all wells simultaneously using a multichannel pipette. Wells were photographed following 1 hr room temperature incubation (see FIGS. 2A-B and FIG. 3). Table 3 presents additional cryoprotective agents scored for the effect on microscopic degranulation (20× high contrast lighting as above).
The following methods were used: “Fresh” in-date 2 day old blood bank O pos random donor platelets were recovered from segments and held in a 50 cc tub with rotation 22° C., 70 cycles/min 1 inch stroke) for 30 min. Glycerol (Fisher tissue grade product) was obtained from virology diluted to 50% in sterile saline and filter sterilized. 12 g glycerol were added to 12 ml sterile saline (BioMeriux—vitek saline) and mixed. This mixture was filter sterilized using a 0.45 um filter (CELLULOSE ACETATE). Dilutions were made of the above saline to a concentration 50%, 25%, 12%, 6%, […]. 200 ul of platelets were withdrawn slowly (8 sec) and add slowly to 7 sterile 2 ml microcentrifuge tubes. 200 ul of 50%, 25%, 12% 6%, and 3% glycerol/saline and two controls using 200 ul saline, were then added to the platelets with slow mixing. Thus the final glycerol concentrations=25, 12, 6, 3, and 1.5. These aliquots were allowed to rotate at room temp as above for 5 min and then placed on a rotator at 70 cycles/min with a 1 inch stroke at 5° C. (temp previously equilibrated and documented at 5° C.)
At day 3, dark dense platelets were observed, indicating degranulation in the control groups (in both control groups A & B). A variation in platelet size was observed: small and dense indicating degranulation, vs. normal morphology pale plump platelets without the dense small degranulated appearance. Degranulation in response to cold storage is associated with the first step of the platelet activation GP-1 signal resulting in α-granule degranulation and massive extracellular release of vWF. (Suhasini el al., 2010). Table 4 presents a summary of additional cryoprotective agents scored for the effect on microscopic degranulation (20× high contrast lighting as above).

Setting [1] is: 6% final in ACD-Platelet mixture, 10 days at 5° C.

For `OCC(O)CO` [Glycerol], under “3% and 6% glycerol, at 3, 6, and 10 days”, the “5° C. induced degranulation” value is “prevented 5 °C induced degranulation”. Also, under “10 days at 5° C.”, the “effect of cryoprotective on platelet degranulation, 3%” value (from here on “effect of cryoprotective … 3%”) is listed as “fair (Fair = 25 to 50% of platelets are non-degranulated)” and the “effect on microscopic degranulation, 3%” value was “fair (Fair = 25 to 50% of platelets are non-degranulated)”. Also, the “platelet colour / granule preservation” value (3% glycerol or 6% glycerol, day 10) is recorded as “light color of platelets was observed, indicating granule preservation”. For the same compound, the “platelet colour / granule preservation” value (3% glycerol, day 3) was “light color of platelets was observed, indicating granule preservation”. For the same compound, the “platelet colour / granule preservation” value (3% glycerol, day 6) is reported as “light color of platelets was observed, indicating granule preservation”. In addition, under setting [1], the “effect of cryoprotective on platelet degranulation, 6%” value was “good (Good = >80 are non-degranulated)” and the “effect on microscopic degranulation, 6%” value is reported as “good (Good = >80 are non-degranulated)”.

Consider Methoxy PEG, for which, under “6 days at 5° C.”, the “effect of cryoprotective on platelet degranulation, 0.38%” value (from here on “effect of cryoprotective … 0.38%”) is “none”; the “effect on microscopic degranulation, 0.38%” value is on record as “none”; the “effect of cryoprotective on platelet degranulation, 0.75%” value (shortened to “effect of cryoprotective … 0.75%”) was “none”; the “effect on microscopic degranulation, 0.75%” value is on record as “none”. In addition, under “6 days at 5° C.”, the “effect of cryoprotective on platelet degranulation, 1.5%” value (“effect of cryoprotective … 1.5%” below) was “good (Good = >80 are non-degranulated)”; the “effect on microscopic degranulation, 1.5%” value is listed as “good (Good = >80 are non-degranulated)”; the “effect of cryoprotective … 3%” value is “good (Good = >80 are non-degranulated)”; the “effect on microscopic degranulation, 3%” value was “good (Good = >80 are non-degranulated)”.

For the compound glycerol propoxylate, under “6 days at 5° C.”, the “effect of cryoprotective … 0.38%” value was “none”; the “effect on microscopic degranulation, 0.38%” value is listed as “none”; the “effect of cryoprotective … 0.75%” value is “fair (Fair = 25 to 50% of platelets are non-degranulated)”; the “effect on microscopic degranulation, 0.75%” value is given as “fair (Fair = 25 to 50% of platelets are non-degranulated)”. For the setting “6 days at 5° C.”, the “effect of cryoprotective … 1.5%” value is “fair (Fair = 25 to 50% of platelets are non-degranulated)”; the “effect on microscopic degranulation, 1.5%” value is “fair (Fair = 25 to 50% of platelets are non-degranulated)”; the “effect of cryoprotective … 3%” value is on record as “none”; the “effect on microscopic degranulation, 3%” value was “none”.

As to pentaerythritol ethoxylate, under “6 days at 5° C.”, the “effect of cryoprotective … 0.38%” value is given as “none”; the “effect on microscopic degranulation, 0.38%” value is listed as “none”; the “effect of cryoprotective … 0.75%” value is “none”; the “effect on microscopic degranulation, 0.75%” value was “none”. Moreover, under “6 days at 5° C.”, the “effect of cryoprotective … 1.5%” value is “none”; the “effect on microscopic degranulation, 1.5%” value is reported as “none”; the “effect of cryoprotective … 3%” value is “none”; the “effect on microscopic degranulation, 3%” value is listed as “none”.

Consider pentaerythritol propoxylate, for which, under “6 days at 5° C.”, the “effect of cryoprotective … 0.38%” value is reported as “fair (Fair = 25 to 50% of platelets are non-degranulated)”; the “effect on microscopic degranulation, 0.38%” value is given as “fair (Fair = 25 to 50% of platelets are non-degranulated)”; the “effect of cryoprotective … 0.75%” value is reported as “none”; the “effect on microscopic degranulation, 0.75%” value is recorded as “none”. Besides, under “6 days at 5° C.”, the “effect of cryoprotective … 1.5%” value is reported as “none”; the “effect on microscopic degranulation, 1.5%” value was “none”; the “effect of cryoprotective … 3%” value was “none”; the “effect on microscopic degranulation, 3%” value is “none”.

As to “trimethylolpropane ethoxylate [Trimethylopropane ethoxylate]”, for the setting “6 days at 5° C.”, the “effect of cryoprotective … 0.38%” value is “none”; the “effect on microscopic degranulation, 0.38%” value is listed as “none”; the “effect of cryoprotective … 0.75%” value is given as “none”; the “effect on microscopic degranulation, 0.75%” value is “none”. Also, for the setting “6 days at 5° C.”, the “effect of cryoprotective … 1.5%” value is given as “none”; the “effect on microscopic degranulation, 1.5%” value is “none”; the “effect of cryoprotective … 3%” value is “none”; the “effect on microscopic degranulation, 3%” value is “none”.

(Values after patent US10897891B2, “Compositions and methods for prolonged cell storage” (Board of Regents, The University of Texas System, priority 2015, dated 2021).)
